Experiments:
[1] = xn = mol fraction of the nth substance listed; details: 101 kPa, Liquid, Vibrating tube method
[2] = refractive index (Na D-line) (dimensionless); xn = mol fraction of the nth substance listed; details: 101 kPa, Liquid, Standard Abbe refractometry

COC(=O)c1ccccc1C(=O)OC [dimethyl 1,2-benzenedicarboxylate] + CCC(C)O
Details | mass density, [1] [kg/m3] | refractive index, [2]
288.15 K, x1 = 0.1002 | 874.348 | 1.41917
288.15 K, x1 = 0.2014 | 929.895 | 1.43651
288.15 K, x1 = 0.3002 | 977.298 | 1.45122
288.15 K, x1 = 0.4001 | 1019.6 | 1.46424
288.15 K, x1 = 0.5002 | 1057.27 | 1.47591
288.15 K, x1 = 0.5991 | 1090.58 | 1.48597
288.15 K, x1 = 0.6993 | 1120.97 | 1.49516
288.15 K, x1 = 0.7996 | 1148.47 | 1.50345
288.15 K, x1 = 0.9015 | 1173.86 | 1.51115
288.15 K, x1 = 1 | 1196.26 | 1.51779
293.15 K, x1 = 0.1002 | 870.052 | 1.41698
293.15 K, x1 = 0.2014 | 925.438 | 1.43429
293.15 K, x1 = 0.3002 | 972.737 | 1.44898
293.15 K, x1 = 0.4001 | 1014.97 | 1.46209
293.15 K, x1 = 0.5002 | 1052.6 | 1.47367
293.15 K, x1 = 0.5991 | 1085.88 | 1.48373
293.15 K, x1 = 0.6993 | 1116.26 | 1.49296
293.15 K, x1 = 0.7996 | 1143.78 | 1.50126
293.15 K, x1 = 0.9015 | 1169.18 | 1.50899
293.15 K, x1 = 1 | 1191.59 | 1.51565
298.15 K, x1 = 0.1002 | 865.694 | 1.41476
298.15 K, x1 = 0.2014 | 920.934 | 1.43205
298.15 K, x1 = 0.3002 | 968.144 | 1.44672
298.15 K, x1 = 0.4001 | 1010.32 | 1.45982
298.15 K, x1 = 0.5002 | 1047.9 | 1.47143
298.15 K, x1 = 0.5991 | 1081.18 | 1.48158
298.15 K, x1 = 0.6993 | 1111.56 | 1.49076
298.15 K, x1 = 0.7996 | 1139.08 | 1.49911
298.15 K, x1 = 0.9015 | 1164.51 | 1.50685
298.15 K, x1 = 1 | 1186.93 | 1.51354
303.15 K, x1 = 0.1002 | 861.267 | 1.41252
303.15 K, x1 = 0.2014 | 916.383 | 1.42979
303.15 K, x1 = 0.3002 | 963.512 | 1.44444
303.15 K, x1 = 0.4001 | 1005.63 | 1.45755
303.15 K, x1 = 0.5002 | 1043.19 | 1.46921
303.15 K, x1 = 0.5991 | 1076.45 | 1.47934
303.15 K, x1 = 0.6993 | 1106.84 | 1.48856
303.15 K, x1 = 0.7996 | 1134.39 | 1.49692
303.15 K, x1 = 0.9015 | 1159.83 | 1.5047
303.15 K, x1 = 1 | 1182.28 | 1.51146
308.15 K, x1 = 0.1002 | 856.794 | 1.4102
308.15 K, x1 = 0.2014 | 911.783 | 1.42751
308.15 K, x1 = 0.3002 | 958.844 | 1.44214
308.15 K, x1 = 0.4001 | 1000.92 | 1.45527
308.15 K, x1 = 0.5002 | 1038.47 | 1.46689
308.15 K, x1 = 0.5991 | 1071.73 | 1.47701
308.15 K, x1 = 0.6993 | 1102.13 | 1.48633
308.15 K, x1 = 0.7996 | 1129.69 | 1.49475
308.15 K, x1 = 0.9015 | 1155.16 | 1.50256
308.15 K, x1 = 1 | 1177.62 | 1.50943
313.15 K, x1 = 0.1002 | 852.235 | 1.40779
313.15 K, x1 = 0.2014 | 907.129 | 1.42515
313.15 K, x1 = 0.3002 | 954.133 | 1.43975
313.15 K, x1 = 0.4001 | 996.185 | 1.45295
313.15 K, x1 = 0.5002 | 1033.72 | 1.46458
313.15 K, x1 = 0.5991 | 1066.99 | 1.47484
313.15 K, x1 = 0.6993 | 1097.4 | 1.48415
313.15 K, x1 = 0.7996 | 1124.99 | 1.49263
313.15 K, x1 = 0.9015 | 1150.49 | 1.50047
313.15 K, x1 = 1 | 1172.97 | 1.50736
318.15 K, x1 = 0.1002 | 847.597 | 1.40549
318.15 K, x1 = 0.2014 | 902.417 | 1.42284
318.15 K, x1 = 0.3002 | 949.381 | 1.43749
318.15 K, x1 = 0.4001 | 991.415 | 1.45068
318.15 K, x1 = 0.5002 | 1028.95 | 1.46236
318.15 K, x1 = 0.5991 | 1062.23 | 1.47262
318.15 K, x1 = 0.6993 | 1092.67 | 1.48194
318.15 K, x1 = 0.7996 | 1120.3 | 1.49047
318.15 K, x1 = 0.9015 | 1145.82 | 1.49835
318.15 K, x1 = 1 | 1168.32 | 1.50524
323.15 K, x1 = 0.1002 | 842.887 | 1.40309
323.15 K, x1 = 0.2014 | 897.649 | 1.42026
323.15 K, x1 = 0.3002 | 944.587 | 1.4351
323.15 K, x1 = 0.4001 | 986.618 | 1.4483
323.15 K, x1 = 0.5002 | 1024.16 | 1.46001
323.15 K, x1 = 0.5991 | 1057.47 | 1.47032
323.15 K, x1 = 0.6993 | 1087.94 | 1.47972
323.15 K, x1 = 0.7996 | 1115.59 | 1.48828
323.15 K, x1 = 0.9015 | 1141.14 | 1.49621
323.15 K, x1 = 1 | 1163.67 | 1.5032

COC(=O)c1ccccc1C(=O)OC [dimethyl 1,2-benzenedicarboxylate] + CCCCO
Details | mass density, [1] [kg/m3] | refractive index, [2]
288.15 K, x1 = 0.0997 | 877.193 | 1.42114
288.15 K, x1 = 0.1998 | 932.375 | 1.43796
288.15 K, x1 = 0.2994 | 980.153 | 1.45268
288.15 K, x1 = 0.3999 | 1022.54 | 1.4657
288.15 K, x1 = 0.5 | 1059.92 | 1.47709
288.15 K, x1 = 0.5985 | 1092.78 | 1.48663
288.15 K, x1 = 0.7001 | 1123.06 | 1.49584
288.15 K, x1 = 0.8016 | 1150.29 | 1.50398
288.15 K, x1 = 0.9002 | 1174.24 | 1.51118
288.15 K, x1 = 1 | 1196.26 | 1.51779
293.15 K, x1 = 0.0997 | 873.146 | 1.41907
293.15 K, x1 = 0.1998 | 928.143 | 1.43584
293.15 K, x1 = 0.2994 | 975.792 | 1.45052
293.15 K, x1 = 0.3999 | 1018.08 | 1.46353
293.15 K, x1 = 0.5 | 1055.37 | 1.47491
293.15 K, x1 = 0.5985 | 1088.17 | 1.48446
293.15 K, x1 = 0.7001 | 1118.42 | 1.49365
293.15 K, x1 = 0.8016 | 1145.63 | 1.50183
293.15 K, x1 = 0.9002 | 1169.57 | 1.50903
293.15 K, x1 = 1 | 1191.59 | 1.51565
298.15 K, x1 = 0.0997 | 869.077 | 1.41699
298.15 K, x1 = 0.1998 | 923.892 | 1.43374
298.15 K, x1 = 0.2994 | 971.414 | 1.44835
298.15 K, x1 = 0.3999 | 1013.6 | 1.46136
298.15 K, x1 = 0.5 | 1050.83 | 1.47274
298.15 K, x1 = 0.5985 | 1083.57 | 1.48227
298.15 K, x1 = 0.7001 | 1113.78 | 1.49148
298.15 K, x1 = 0.8016 | 1140.96 | 1.49966
298.15 K, x1 = 0.9002 | 1164.91 | 1.50689
298.15 K, x1 = 1 | 1186.93 | 1.51354
303.15 K, x1 = 0.0997 | 864.981 | 1.41489
303.15 K, x1 = 0.1998 | 919.619 | 1.43158
303.15 K, x1 = 0.2994 | 967.016 | 1.44618
303.15 K, x1 = 0.3999 | 1009.11 | 1.45918
303.15 K, x1 = 0.5 | 1046.26 | 1.47057
303.15 K, x1 = 0.5985 | 1078.96 | 1.4801
303.15 K, x1 = 0.7001 | 1109.14 | 1.48929
303.15 K, x1 = 0.8016 | 1136.31 | 1.49753
303.15 K, x1 = 0.9002 | 1160.25 | 1.50474
303.15 K, x1 = 1 | 1182.28 | 1.51146
308.15 K, x1 = 0.0997 | 860.864 | 1.41266
308.15 K, x1 = 0.1998 | 915.319 | 1.42932
308.15 K, x1 = 0.2994 | 962.593 | 1.44399
308.15 K, x1 = 0.3999 | 1004.6 | 1.45694
308.15 K, x1 = 0.5 | 1041.69 | 1.46834
308.15 K, x1 = 0.5985 | 1074.34 | 1.47795
308.15 K, x1 = 0.7001 | 1104.49 | 1.4871
308.15 K, x1 = 0.8016 | 1131.65 | 1.49537
308.15 K, x1 = 0.9002 | 1155.59 | 1.50263
308.15 K, x1 = 1 | 1177.62 | 1.50943
313.15 K, x1 = 0.0997 | 856.701 | 1.41048
313.15 K, x1 = 0.1998 | 910.989 | 1.42712
313.15 K, x1 = 0.2994 | 958.146 | 1.4417
313.15 K, x1 = 0.3999 | 1000.06 | 1.45469
313.15 K, x1 = 0.5 | 1037.11 | 1.4662
313.15 K, x1 = 0.5985 | 1069.7 | 1.47585
313.15 K, x1 = 0.7001 | 1099.84 | 1.48507
313.15 K, x1 = 0.8016 | 1126.98 | 1.4933
313.15 K, x1 = 0.9002 | 1150.93 | 1.50061
313.15 K, x1 = 1 | 1172.97 | 1.50736
318.15 K, x1 = 0.0997 | 852.519 | 1.40835
318.15 K, x1 = 0.1998 | 906.628 | 1.42501
318.15 K, x1 = 0.2994 | 953.674 | 1.43965
318.15 K, x1 = 0.3999 | 995.51 | 1.45257
318.15 K, x1 = 0.5 | 1032.5 | 1.46395
318.15 K, x1 = 0.5985 | 1065.06 | 1.47376
318.15 K, x1 = 0.7001 | 1095.18 | 1.48299
318.15 K, x1 = 0.8016 | 1122.32 | 1.49121
318.15 K, x1 = 0.9002 | 1146.27 | 1.49853
318.15 K, x1 = 1 | 1168.32 | 1.50524
323.15 K, x1 = 0.0997 | 848.279 | 1.40609
323.15 K, x1 = 0.1998 | 902.232 | 1.42274
323.15 K, x1 = 0.2994 | 949.172 | 1.4375
323.15 K, x1 = 0.3999 | 990.935 | 1.45024
323.15 K, x1 = 0.5 | 1027.87 | 1.46165
323.15 K, x1 = 0.5985 | 1060.4 | 1.47156
323.15 K, x1 = 0.7001 | 1090.51 | 1.48083
323.15 K, x1 = 0.8016 | 1117.65 | 1.48906
323.15 K, x1 = 0.9002 | 1141.61 | 1.4964
323.15 K, x1 = 1 | 1163.67 | 1.5032

Reference: the NIST ThermoML archive (doi:10.1016/j.tca.2012.01.013)
